Experimental data as given in patent publication US8940865B2, “Myocardial peptide, preparation method and uses thereof” (Dalian Zhen-Ao Pharmaceutical Co, Ltd., priority 2008, dated 2015).
Values joined by “and” are separate entries in the source; they are usually repeats but may differ in a detail not shown here. Identical values can stand only once.

Experiments:
[1] = system: vitro cultured myocardium poisoned by adriamycin; assay: Activity detection experiment of cultivation of myocardium cell (MTT); format: cell-based; details: mitochondria dehydrogenase activity of adriamycin-damaged myocardium, listed as peptide
Text: “Activity detection experiment of cultivation of myocardium cell” provided by DaLian Zhen-Ao Pharmaceutical CO., LTD is adopted in the activity detection. The experiment is based on test of vitro cultured myocardium poisoned by adriamycin, wherein, […] (MTT) is used as reaction indicator to observe the enhancement of the activity of mitochondria dehydrogenase of the damaged myocardium conducted by cardio myopeptidin, to determine the protective effect of myocardium.

[2] = system: ischemia/reperfusion damaged rat; assay: Preventive administration, ischemia/reperfusion (LAD ligation) rat model; format: in vivo, SD rat; details: preventive i.v. 30 min before ligation; for MIS (myocardial infarct size): ischemic area weight/whole heart weight; for CK / LDH / MDA / SOD: rat serum
Description: 70 SD rats (250˜300 g per rat) were taken, wherein, 60 rats were divided into 6 groups evenly and randomly according to weight, every 10 of each group, the remains are kept for replacement of dead animals of each group.
Normal Control Group: carrying out sham operation, threading a silk suture through the left anterior descending coronary artery (LAD) without ligation;
Model Group: intravenous injecting saline solution of 5 ml/kg 30 minutes before ligation, and the preparation of hypoxia/reoxygenation model is the same as Normal Control Group;
Positive Control Group: intravenous injecting Verapamil of 1 ml/kg 30 min before ligation, preparation of the hypoxia/reoxygenation model is the same as Normal Control Group. […]
Preparation of the Model:
(§1) Intraperitoneal injecting 6% Urethane with 20 ml/kg to anaesthetize the animal, fixing the animal on operating table in supine position; being connected with the electrocardiograph to detect the limb II lead electrocardiogram, tracheal intubating and connecting the animal with respirators, taking continuous positive end-expiratory pressure with tidal volume of 6 ml/200 g, frequency of 55/min and breathing ratio of 2:1. Carrying out thoracotomy on the gap between the forth and the fifth ribs of the left border of sternum, separating the ribs and removing the pericardium. Ligating at the left anterior descending coronary artery by using 6/0 silk suture by the sign of left auricle lower margin, and setting a piece of polyethylene pipe with diameter of 1 mm between the ligation silk suture and blood vessel. Ligating the silk suture to press the left anterior descending coronary artery by the polyethylene pipe and cause myocardial ischemia. Taking part of myocardium becoming grey and electrocardiogram S-T segment raising as the sign of that the left anterior descending coronary artery is ligated successfully. Taking out the polyethylene pipe carefully to cause the reperfusion. Verifying the success of reoxygenation by reactive hyperemia of ischemia area and the descending of the raised S-T segment by ½. Reoxygenation for 30 minutes, then sampling blood from abdominal aorta to prepare serum which is used to measure the biochemical index (measuring the content of CK, LDH, MDA, SPD according to the Reagent kits Instruction).
(§2) Rat's heart was taken and after being blooded, the residual blood in the ventricle was cleaned by normal saline to weight the weight of whole heart. Fat was removed, the heart was crosscut into 4˜5 pieces and was put into a tube, to be carried out NBT dye at 37° C. (dying the normal tissue rather than the ischemic tissue), taking photographs. The ischemic area of the myocardium was cut to take a weighing, and then the myocardial infarct size (MIS) was calculated by the ratio of weight of the ischemic area of the myocardium to whole heart weight, which was present by percentage.

[3] = system: primary culture myocardium cell damaged by adriamycin; assay: Effect of CMPC against adriamycin injury of primary culture myocardium cell (MTT); format: cell-based, Neonatal SD rat
Description: Remove the fibroblast through differential adhesion and chemistry method, and inoculate myocardium cell on the 96-well plates.
2.1.2 The Against Function of Cmpc to Injury of Adriamycin to Primary Culture Myocardium Cell.
Cell culture method is the same as 2.1.1
Preparation of model: Blank Control Group: cultivating myocardium cell with DMEM-H-15;
Model Group: adding 1 mg/L adriamycin, washing the plate with DMEM-H-15 two times after being cultivated for 1 h, adding DMEM-H-15 for cultivation;
Protective rate=(Ax−Amodel)/(Acontrol−Amodel)×100%;
(Ax, Amode, Acontrol respectively represent Absorbance value of Drug administration groups, Model Group and Blank control group.

[4] = system: ischemia/reperfusion damaged rat; assay: Therapeutic administration, ischemia/reperfusion (LAD ligation) rat model; format: in vivo, SD rat; details: therapeutic i.v. 5 minutes after ligation; for CK / LDH / MDA / SOD: rat serum
Description: as §1, §2
The drug was intravenously injured on the tail 5 minutes after ligation of LAD, then reperfusion was carried out for 30 min 30 minutes after ligation of LAD. Heart was taken after sampling blood from abdominal aorta. The biochemical index and the myocardial infarction size were measure by using the above method.

KGAWSNVLRGMGGAF [CMPC, Lys-Gly-Ala-Trp-Ser-Asn-Val-Leu-Arg-Gly-Met-Gly-Gly-Ala-Phe]
Activity value [1]: 2.3570 and 2.7328 and 2.564 | MIS (myocardial infarct size) ([2]; Dosage 0.2 mg/kg): 4.67 ± 0.74 % | MIS (myocardial infarct size) ([2]; Dosage 0.6 mg/kg): 4.17 ± 0.62 % | MIS (myocardial infarct size) ([2]; Dosage 1.8 mg/kg): 3.47 ± 1.08 % | CK ([2]; Dosage 0.2 mg/kg): 2.238 ± 0.274 U/ml | LDH ([2]; Dosage 0.2 mg/kg): 7555.34 ± 600.16 U/L | MDA ([2]; Dosage 0.2 mg/kg): 4.642 ± 0.978 nmol/mL | SOD ([2]; Dosage 0.2 mg/kg): 134.85 ± 12.55 U/ml | CK ([2]; Dosage 0.6 mg/kg): 2.172 ± 0.329 U/ml | LDH ([2]; Dosage 0.6 mg/kg): 7531.58 ± 414.64 U/L | MDA ([2]; Dosage 0.6 mg/kg): 4.847 ± 0.570 nmol/mL | SOD ([2]; Dosage 0.6 mg/kg): 130.43 ± 10.55 U/ml | CK ([2]; Dosage 1.8 mg/kg): 2.045 ± 0.358 U/ml | LDH ([2]; Dosage 1.8 mg/kg): 7453.80 ± 366.11 U/L | MDA ([2]; Dosage 1.8 mg/kg): 4.371 ± 0.47 nmol/mL | SOD ([2]; Dosage 1.8 mg/kg): 135.67 ± 8.64 U/ml | % (protective rate) ([3]; Plate 1, Dosage 0.0032 mg/L): 2.01% | A540 ([3]; Plate 1, Dosage 0.0032 mg/L): 0.662 ± 0.036 | % (protective rate) ([3]; Plate 1, Dosage 0.016 mg/L): 33.08% | A540 ([3]; Plate 1, Dosage 0.016 mg/L): 0.695 ± 0.039 | % (protective rate) ([3]; Plate 1, Dosage 0.08 mg/L): 40.49% | A540 ([3]; Plate 1, Dosage 0.08 mg/L): 0.703 ± 0.012 | % (protective rate) ([3]; Plate 1, Dosage 0.4 mg/L): 58.27% | A540 ([3]; Plate 1, Dosage 0.4 mg/L): 0.723 ± 0.018 | % (protective rate) ([3]; Plate 1, Dosage 2 mg/L): 27.98% | A540 ([3]; Plate 1, Dosage 2 mg/L): 0.690 ± 0.025 | % (protective rate) ([3]; Plate 1, Dosage 10 mg/L): 4.79% | A540 ([3]; Plate 1, Dosage 10 mg/L): 0.665 ± 0.032 | % (protective rate) ([3]; Plate 1, Dosage 50 mg/L): 2.47% | A540 ([3]; Plate 1, Dosage 50 mg/L): 0.662 ± 0.031 | % (protective rate) ([3]; Plate 2, Dosage 0.0032 mg/L): 36.17% | A540 ([3]; Plate 2, Dosage 0.0032 mg/L): 0.755 ± 0.033 | % (protective rate) ([3]; Plate 2, Dosage 0.016 mg/L): 35.55% | A540 ([3]; Plate 2, Dosage 0.016 mg/L): 0.755 ± 0.024 | % (protective rate) ([3]; Plate 2, Dosage 0.08 mg/L): 49.30% | A540 ([3]; Plate 2, Dosage 0.08 mg/L): 0.769 ± 0.055 | % (protective rate) ([3]; Plate 2, Dosage 0.4 mg/L): 56.11% | A540 ([3]; Plate 2, Dosage 0.4 mg/L): 0.777 ± 0.057 | % (protective rate) ([3]; Plate 2, Dosage 2 mg/L): 33.85% | A540 ([3]; Plate 2, Dosage 2 mg/L): 0.753 ± 0.065 | % (protective rate) ([3]; Plate 2, Dosage 10 mg/L): 33.54% | A540 ([3]; Plate 2, Dosage 10 mg/L): 0.752 ± 0.039 | % (protective rate) ([3]; Plate 2, Dosage 50 mg/L): 33.08% | A540 ([3]; Plate 2, Dosage 50 mg/L): 0.752 ± 0.036 | % (protective rate) ([3]; Plate 3, Dosage 0.016 mg/L): 55.92% | A540 ([3]; Plate 3, Dosage 0.016 mg/L): 0.810 ± 0.020 | % (protective rate) ([3]; Plate 3, Dosage 0.08 mg/L): 60.35% | A540 ([3]; Plate 3, Dosage 0.08 mg/L): 0.819 ± 0.016 | % (protective rate) ([3]; Plate 3, Dosage 0.4 mg/L): 42.34% | A540 ([3]; Plate 3, Dosage 0.4 mg/L): 0.781 ± 0.050 | % (protective rate) ([3]; Plate 3, Dosage 2 mg/L): 39.42% | A540 ([3]; Plate 3, Dosage 2 mg/L): 0.775 ± 0.008 | % (protective rate) ([3]; Plate 3, Dosage 10 mg/L): 36.41% | A540 ([3]; Plate 3, Dosage 10 mg/L): 0.768 ± 0.057 | % (protective rate) ([3]; Plate 3, Dosage 50 mg/L): 30.49% | A540 ([3]; Plate 3, Dosage 50 mg/L): 0.756 ± 0.014 | CK ([4]; Dosage 0.2 mg/kg): 2.026 ± 0.532 U/ml | LDH ([4]; Dosage 0.2 mg/kg): 7763.83 ± 770.70 U/L | MDA ([4]; Dosage 0.2 mg/kg): 4.878 ± 0.430 nmol/mL | SOD ([4]; Dosage 0.2 mg/kg): 140.59 ± 20.28 U/ml | CK ([4]; Dosage 0.6 mg/kg): 1.748 ± 0.573 U/ml | LDH ([4]; Dosage 0.6 mg/kg): 7034.59 ± 1167.17 U/L | MDA ([4]; Dosage 0.6 mg/kg): 4.862 ± 0.468 nmol/mL | SOD ([4]; Dosage 0.6 mg/kg): 145.41 ± 10.56 U/ml | CK ([4]; Dosage 1.8 mg/kg): 1.707 ± 0.332 U/ml | LDH ([4]; Dosage 1.8 mg/kg): 7233.69 ± 297.69 U/L | MDA ([4]; Dosage 1.8 mg/kg): 4.685 ± 0.714 nmol/mL | SOD ([4]; Dosage 1.8 mg/kg): 143.41 ± 12.14 U/ml | MIS (myocardial infarct size) ([4]; Dosage 0.2 mg/kg): 3.95 ± 0.97 % | MIS (myocardial infarct size) ([4]; Dosage 0.6 mg/kg): 4.20 ± 0.78 % | MIS (myocardial infarct size) ([4]; Dosage 1.8 mg/kg): 3.68 ± 1.39 %
